Assay results reported in article PMC5226997 (European Journal of Clinical Pharmacology, 2016).
Where “and” joins values, the source holds several entries; their conditions need not be identical. Equal entries are not always repeated. Where two headings read alike, the source gives them in different places. Marks after values point to notes of the source that are not given here.

How the values were obtained:
[1] = human, in vivo, 75 mg
Protocol: (§1) The rifampicin open-label, fixed-sequence, single-center trial consisted of three visits to the study center (Fig. 1b). Subjects were screened during visit 1, which is 28 days prior to visit 2. […] Safety assessments were performed, and blood samples were collected for PK analysis up until day 15. Subjects were discharged from the study center on day 15. The final visit, visit 3, was for follow-up and took place 7–10 days after discharge.
(§2) Subjects received daily dosing of rifampicin 600 mg for 8 days to maximize the induction effect on CYP3A4 [10]. […] Fluids were not allowed from 1 h pre- until 1 h post-dose, with the exception of water needed to swallow investigational products.
(§3) Blood samples were collected prior to itraconazole or fluconazole administration on days 6 to 8 to determine trough itraconazole or fluconazole concentrations; rifampicin concentrations were measured at 2 h post-dose. In study B, the 4β-hydroxycholesterol to cholesterol concentration ratio was calculated as a biomarker of CYP3A4 induction. […] Samples were analyzed by Covance on behalf of AstraZeneca R&D, using an appropriate bioanalytical method [e.g., [11], [12]].
(§4) PK variables were summarized using descriptive statistics.
(§5) After addition of deuterated internal standard, samples were extracted by protein precipitation by the addition of 4 volumes of methanol:acetonitrile. After centrifugation, the supernatants were extracted to dryness under nitrogen at 50°C and reconstituted in methanol;water before analysis.

[2] = human, in vivo
Text: (§6) The phase I, open-label, single-center, double-crossover-sequence, partially randomized (for assignment to treatment sequence), three-period itraconazole/fluconazole trial consisted of four visits to the study center (Fig. 1a). Subjects were screened during visit 1, which is 28 days prior to visit 2.
(§7) On day 1 of visit 2, subjects were randomized to one of two treatment sequences and admitted for residence at the study center up to day 12; standardized meals were provided during residency. […] Safety assessments were performed, and blood samples were collected for PK analysis up until day 12. Subjects were discharged on day 12 and completed a washout period of at least 21 days.
(§8) During visit 3, dosing period 3 comprised days 1–11 when subjects received the alternate treatment regimen (fluconazole 400 mg on day 1 followed by 200 mg once daily thereafter or itraconazole 200 mg twice daily) in a crossover fashion. […] Subjects were discharged on day 12. A follow-up visit, visit 4, was scheduled for 7–10 days after discharge from the study center.
(§9) Fluids were not allowed from 1 h pre- until 1 h post-dose, with the exception of 240 mL water to swallow the capsules. Fluconazole was dosed with a light breakfast; there were no restrictions regarding dosing with food in the SPC [8]. Itraconazole was dosed with a light breakfast and dinner as per SPC guidelines to ensure complete absorption [9].
as §3, §4, §5

[3] = Frozen storage stability in plasma samples; conditions: plasma with K2EDTA; -20°C -80°C
Protocol: as §5

[4] = Study A: safety and tolerability (adverse events); type: in vivo, human
[5] = Study B: plasma pharmacokinetics of single-dose selumetinib 75 mg alone or co-dosed with rifampicin; conditions: human, in vivo
Protocol: as §1, §2, §3, §4, §5

clinical = conditions: human, in vivo, 75 mg
Protocol: as §1, §2, §3, §4, §5

[6] = Study B: safety and tolerability (adverse events); type: in vivo, human
Protocol: Adverse events (reported by system organ class and preferred term using the Medical Dictionary for Regulatory Activities (MedDRA) version 17.0), vital signs, 12-lead electrocardiograms (ECGs), and clinical laboratory tests were recorded to assess safety and tolerability in both trials. Adverse events were collected from day 1, period 1 of visit 2, until the follow-up visit in each trial. Serious adverse events were collected from the time of informed consent until follow-up. Each adverse event was assigned to the period of study treatment in which it started or worsened. Additional information regarding safety and tolerability is included as Online Resource 3.
The safety analysis set included any subject who received at least one dose of any of the investigational products, and in addition in the itraconazole/fluconazole trial, for whom post-dose data were available.

[7] = human
Protocol: as §5

[8] = parameters: method as in earlier work; conditions: relative bioavailability trial NCT01635023; cited from earlier work
[9] = Study A: plasma pharmacokinetics of single-dose selumetinib 25 mg alone or co-dosed with itraconazole or fluconazole; conditions: for AUC / Cmax / half-life: human, plasma, oral
Text: as §6, §7, §8, §9, §3, §4, §5

[10] = during single-agent (only) treatment
[11] = co-dosed with fluconazole vs selumetinib alone

O=C(NOCCO)c1cc2nc[nH]c2c(F)c1Nc1ccc(Br)cc1Cl [N-desmethyl selumetinib]
AUC(0–t), geometric least squares mean (GLSMR line) [1]: 347.3 ng·h/mL
C max, geometric least squares mean (GLSMR line) [1]: 106.4 ng/mL
MRAUC (AUC metabolite to parent ratio), arithmetic mean (SD) [1]: 0.0921 (0.0236)^a
MRAUC(0–t) (AUC(0–t) metabolite to parent ratio), arithmetic mean (SD) [1]: 0.0921 (0.0236)
MRCmax (C max metabolite to parent ratio), arithmetic mean (SD) [1]: 0.0760 (0.0187)
t 1/2 arithmetic mean (SD) [1]: 9.47 (3.24) h
t max median (min, max) [1]: 1.50 (1.00, 3.00) h
AUC(0–t), geometric least squares mean (GLSMR line) ([2]; 25 mg): 83.39 ng·h/mL
C max, geometric least squares mean (GLSMR line) ([2]; 25 mg): 35.67 ng/mL
MRAUC(0–t) (AUC(0–t) metabolite to parent ratio), arithmetic mean (SD) ([2]; 25 mg): 0.0760 (0.0227)
MRCmax (C max metabolite to parent ratio), arithmetic mean (SD) ([2]; 25 mg): 0.0917 (0.0312)
t 1/2 arithmetic mean (SD) ([2]; 25 mg): 4.66 (2.38) h
t max median (min, max) ([2]; 25 mg): 1.00 (0.50, 2.50) h
established frozen storage stability period [3]: 9 months

Cn1cnc2c(F)c(Nc3ccc(Br)cc3Cl)c(C(=O)NOCCO)cc21 [Selumetinib]
C max, geometric least squares mean (GLSMR line) [1]: 1441 ng/mL
CL/F arithmetic mean (SD) [1]: 17.0 (3.33) L/h
subjects reporting adverse events [4, 10]: 7.7%
subjects with selumetinib-related adverse events (diffuse alopecia, headache; mild) ([4]; selumetinib and itraconazole co-dosing, n = 2): 8.3%
subjects reporting adverse events ([4]; selumetinib co-dosed with fluconazole, 4/22): 18.2%
subjects with selumetinib-related acne (mild) ([4]; selumetinib co-dosed with fluconazole, one subject): 4.5%
subjects reporting headache ([4]; selumetinib co-dosed with itraconazole, n = 4/24): 16.7%
subjects reporting adverse events ([4]; selumetinib co-dosed with itraconazole, n = 7/24): 29.2%
subjects reporting a moderate adverse event (headache) ([4]; selumetinib co-dosed with itraconazole, one subject): 4.2%
tolerability ([4]; single dose or co-administered with itraconazole or fluconazole): well tolerated
AUC [5]: 4480 ng·h/mL
Tmax (clinical): 1.27 h
AUC (clinical; AUC, geometric least squares mean (GLSMR line)): 4480 ng·h/mL
half-life (clinical; t 1/2 arithmetic mean (SD)): 9.27 h
relation of adverse events to selumetinib treatment ([6]; all adverse events mild): unrelated
subjects reporting at least one adverse event ([6]; selumetinib co-dosed with rifampicin, one subject (erythema)): 4.5%
subjects reporting at least one adverse event ([6]; selumetinib-only treatment, four subjects): 18.2%
tolerability ([6]; single dose or co-administered with rifampicin): well tolerated
established frozen storage stability period [7]: 24 months
within-subject coefficient of variation (CV) for AUC [8]: 16.9%
within-subject coefficient of variation (CV) for C max [8]: 34.0%
AUC increased by [9, 11]: 53% and ~ 50%
C max increased by [9, 11]: 26%
AUC ([9]; 25 mg, AUC (CV%), study A, selumetinib 25 mg alone, N = 26): 1180 ng·h/mL
AUC ([9]; 25 mg, AUC, geometric least squares mean (GLSMR line), study A, selumetinib 25 mg alone, n = 26, linear mixed-effects model): 1180 ng·h/mL
Cmax ([9]; 25 mg, C max (CV%), study A, selumetinib 25 mg alone, N = 26): 409 ng/mL
Cmax ([9]; 25 mg, C max, geometric least squares mean (GLSMR line), study A, selumetinib 25 mg alone, n = 26, linear mixed-effects model): 409 ng/mL
half-life ([9]; 25 mg, t 1/2 arithmetic mean (SD), study A, selumetinib 25 mg alone, N = 26): 8.24 h
AUC ([9]; AUC (CV%), study A, selumetinib 25 mg + fluconazole, N = 22): 1770 ng·h/mL
AUC ([9]; AUC (CV%), study A, selumetinib 25 mg + itraconazole, N = 24): 1760 ng·h/mL
AUC ([9]; AUC, geometric least squares mean (GLSMR line), study A, selumetinib 25 mg + fluconazole, n = 22, linear mixed-effects model): 1820 ng·h/mL
AUC ([9]; AUC, geometric least squares mean (GLSMR line), study A, selumetinib 25 mg + itraconazole, n = 24, linear mixed-effects model): 1770 ng·h/mL
Cmax ([9]; C max (CV%), study A, selumetinib 25 mg + fluconazole, N = 22): 509 ng/mL
Cmax ([9]; C max (CV%), study A, selumetinib 25 mg + itraconazole, N = 24): 484 ng/mL
Cmax ([9]; C max, geometric least squares mean (GLSMR line), study A, selumetinib 25 mg + fluconazole, n = 22, linear mixed-effects model): 513 ng/mL
Cmax ([9]; C max, geometric least squares mean (GLSMR line), study A, selumetinib 25 mg + itraconazole, n = 24, linear mixed-effects model): 484 ng/mL
half-life ([9]; mean t 1/2 prolonged by, co-dosed with fluconazole vs selumetinib alone): ~1.5 h
half-life ([9]; mean terminal half-life (t 1/2) prolonged by, co-dosed with itraconazole vs selumetinib alone): ~6 h
half-life ([9]; t 1/2 arithmetic mean (SD), study A, selumetinib 25 mg + fluconazole, N = 22): 9.75 h
half-life ([9]; t 1/2 arithmetic mean (SD), study A, selumetinib 25 mg + itraconazole, N = 24): 14 h
CL/F arithmetic mean (SD) ([9]; study A, selumetinib 25 mg + fluconazole, N = 22): 14.8 (4.39) L/h
CL/F arithmetic mean (SD) ([9]; study A, selumetinib 25 mg + itraconazole, N = 24): 14.9 (4.92) L/h
CL/F arithmetic mean (SD) ([9]; study A, selumetinib 25 mg alone, N = 26): 21.9 (5.76) L/h

OC(Cn1cncn1)(Cn1cncn1)c1ccc(F)cc1F [fluconazole, reference compound]
subjects reporting adverse events [4, 10]: 17.4%
trough plasma concentration (geometric mean) [2]: 5590 to 5730 ng/mL

CCC(C)n1ncn(-c2ccc(N3CCN(c4ccc(OCC5COC(Cn6cncn6)(c6ccc(Cl)cc6Cl)O5)cc4)CC3)cc2)c1=O (centres unmarked) [itraconazole, reference compound]
subjects reporting adverse events [4, 10]: 20.8%

CO[C@H]1/C=C/O[C@@]2(C)Oc3c(C)c(O)c4c(O)c(c(/C=N/N5CCN(C)CC5)c(O)c4c3C2=O)NC(=O)/C(C)=C\C=C\[C@H](C)[C@H](O)[C@@H](C)[C@@H](O)[C@@H](C)[C@H](OC(C)=O)[C@@H]1C [rifampicin, reference compound]
subjects reporting adverse events ([6]; period of rifampicin administration (days 4–11)): all subjects
subjects reporting chromaturia ([6]; period of rifampicin administration (days 4–11), resolved 2 to 3 days after treatment ceased): reported by all of these subjects
